Assay results from US20230131966A1, “FUNGICIDAL AMIDES” (FMC Corporation, priority 2020, published 2023).

Tests used:
Assay type in all cases: in vivo
[1] = system: Phakopsora pachyrhizi; assay: Test A: Asian soybean rust control on soybean seedlings; details: soybean seedlings, 100 = 100% disease control, 0 = no control
[2] = system: Puccinia recondita f. sp. tritici; assay: Test B: wheat leaf rust control on wheat seedlings; details: wheat seedlings, 100 = 100% disease control, 0 = no control
[3] = system: Plasmopara viticola; assay: Test D: grape downy mildew control on grape seedlings; details: 250 ppm, 100 = 100% disease control, 0 = no control
[4] = system: Botrytis cinerea; assay: Test E: tomato Botrytis control on tomato seedlings; details: 250 ppm, 100 = 100% disease control, 0 = no control
[5] = system: Phytophthora infestans; assay: whole plant or invertebrate; details: tomato seedlings, 100 = 100% disease control, 0 = no control; for Test F disease control rating: 250 ppm
[6] = system: Erysiphe graminis f. sp. tritici; assay: Test G: wheat powdery mildew control on wheat seedlings; details: 250 ppm, 100 = 100% disease control, 0 = no control
[7] = system: Zymoseptoria tritici; assay: Test C: wheat leaf blotch control on wheat seedlings; details: 250 ppm, wheat seedlings, 100 = 100% disease control, 0 = no control

| SMILES | Test A disease control rating ([1]; 250 ppm) | Test B disease control rating ([2]; 250 ppm) | Test E disease control rating [4] | Test F disease control rating [5] | Test G disease control rating [6] | Test C disease control rating [7] | also measured |
| --- | --- | --- | --- | --- | --- | --- | --- |
| COc1ccnc(C(=O)NC(C)C(=O)OC(C)c2ccc(F)cc2Cc2ccc(F)cc2)c1O (mixture of isomers) [Compound 42] | 100% | 100% | 0% | 0% | 0% |  | Test D disease control rating [3]: 66% |
| CCOC(=O)c1cnn(-c2ccc(C(C)OC(=O)C(C)NC(=O)c3nccc(OC)c3O)cc2)c1 (mixture of isomers) [Compound 50] |  | 68% |  |  |  | 54% |  |
| COc1ccnc(C(=O)NC(C)C(=O)OC(C)c2ccccc2Oc2ccc(F)cc2)c1O (mixture of isomers) [Compound 55] | 100% | 98% | 0% | 0% | 13% |  | Test D disease control rating [3]: 52% |
| COc1ccnc(C(=O)NC(C)C(=O)OC(C)c2ccc(C3CCCC3)cc2)c1O (mixture of isomers) [Compound 65] |  |  |  |  |  |  | Test A disease control rating ([1]; 50 ppm): 100%; Test B disease control rating ([2]; 50 ppm): 98% |
| COc1ccnc(C(=O)NC(C)C(=O)OC(C)c2ccc(C3CC3)cc2)c1OC(C)=O (mixture of isomers) [Compound 71] |  |  |  |  |  |  | Test A disease control rating ([1]; 50 ppm): 89% |
| COc1ccnc(C(=O)NC(C)C(=O)OC(C)C2CCC(C(F)(F)F)CC2)c1O (mixture of isomers) [Compound 179] | 100% | 100% | 0% | 0% |  | 99% | Test D disease control rating [3]: 82% |
| COc1ccnc(C(=O)NC(C)C(=O)OC(C)C23CC4CC(CC(C4)C2)C3)c1O (racemic) [Compound 44] |  |  |  |  |  |  | pest or weed control at 50 ppm ([1]; Phakopsora pachyrhizi, 50 ppm, read-out: Test A disease control rating): 75%; pest or weed control at 50 ppm ([2]; Puccinia recondita, 50 ppm, read-out: Test B disease control rating): 55% |
| COc1ccnc(C(=O)NC(C)C(=O)OC(C)c2ccc3ccccc3c2)c1O (racemic) [Compound 76] |  |  |  |  |  |  | pest or weed control at 250 ppm ([1]; Phakopsora pachyrhizi, 250 ppm, read-out: Test A disease control rating): 100%; pest or weed control at 250 ppm ([2]; Puccinia recondita, 250 ppm, read-out: Test B disease control rating): 100%; pest or weed control at 250 ppm ([7]; Zymoseptoria tritici, read-out: Test C disease control rating): 99%; pest or weed control at 250 ppm ([4]; Botrytis cinerea, read-out: Test E disease control rating): 0%; pest or weed control at 250 ppm ([5]; Phytophthora infestans, in Solanum lycopersicum, read-out: Test F disease control rating, 250 ppm): 0% |
| COc1ccnc(C(=O)N[C@@H](C)C(=O)OC(C)c2ccc(F)cc2Cc2ccc(F)cc2)c1O (single isomer, unassigned) [Compound 41] | 100% | 100% | 0% | 24% | 0% |  | Test D disease control rating [3]: 70% |
| COc1ccnc(C(=O)N[C@@H](C)C(=O)OC(C)C2CCCCC2)c1O (single isomer, unassigned) [Compound 51] |  |  |  |  |  |  | Test A disease control rating ([1]; 50 ppm): 100%; Test B disease control rating ([2]; 50 ppm): 100% |
| COc1ccnc(C(=O)N[C@@H](C)C(=O)OC(C)C2CCCCC2)c1O (single isomer, unassigned) [Compound 52] |  |  |  |  |  |  | Test A disease control rating ([1]; 50 ppm): 32%; Test B disease control rating ([2]; 50 ppm): 9% |
| COc1ccnc(C(=O)N[C@@H](C)C(=O)OC(C)c2ccc(F)cc2Cc2ccc(F)cc2)c1O (single isomer, unassigned) [Compound 54] | 79% | 68% | 0% | 0% | 0% |  | Test D disease control rating [3]: 55% |
| COc1ccnc(C(=O)N[C@@H](C)C(=O)OC(C)c2ccccc2Oc2ccc(F)cc2)c1O (single isomer, unassigned) [Compound 59] | 100% | 100% | 0% | 0% | 13% |  | Test D disease control rating [3]: 66% |
| COc1ccnc(C(=O)N[C@@H](C)C(=O)OC(C)c2ccc(C3CCCCC3)cc2)c1O (single isomer, unassigned) [Compound 73] |  |  |  |  |  |  | Test A disease control rating ([1]; 50 ppm): 0%; Test B disease control rating ([2]; 50 ppm): 41% |
| COc1ccnc(C(=O)N[C@@H](C)C(=O)OC(C)c2ccc(C3CCCCC3)cc2)c1O (single isomer, unassigned) [Compound 74] |  |  |  |  |  |  | Test A disease control rating ([1]; 50 ppm): 100%; Test B disease control rating ([2]; 50 ppm): 99% |
| COc1ccnc(C(=O)N[C@@H](C)C(=O)OC(C)c2ccc(C3CCCCC3)cc2)c1OC(C)=O (single isomer, unassigned) [Compound 86] | 73% |  | 0% | 0% | 0% | 65% | Test D disease control rating [3]: 24% |
| COc1ccnc(C(=O)N[C@@H](C)C(=O)OC(C)C2CCCCC2)c1OC(C)=O (single isomer, unassigned) [Compound 88] | 99% |  | 0% | 0% | 0% | 58% | Test D disease control rating [3]: 43% |
| COc1ccnc(C(=O)N[C@@H](C)C(=O)OC(C)c2ccccc2Oc2ccccc2)c1O (single isomer, unassigned) [Compound 105] | 98% | 28% | 0% | 0% | 0% | 67% |  |
| COc1ccnc(C(=O)N[C@@H](C)C(=O)OC(C)c2ccccc2Oc2ccccc2)c1O (single isomer, unassigned) [Compound 106] | 100% | 92% | 16% | 0% | 0% | 90% |  |
| COc1ccnc(C(=O)N[C@@H](C)C(=O)OC(C)c2ccccc2Oc2ccccc2)c1OC(C)=O (single isomer, unassigned) [Compound 107] | 100% | 98% | 0% | 0% | 0% | 87% |  |
| COc1ccnc(C(=O)N[C@@H](C)C(=O)OC(C)c2ccccc2Oc2ccccc2)c1OC(C)=O (single isomer, unassigned) [Compound 108] | 43% | 32% | 0% | 0% | 0% | 75% |  |
| COc1ccnc(C(=O)N[C@@H](C)C(=O)OC(C)c2ccccc2Cc2ccccc2)c1O (single isomer, unassigned) [Compound 109] | 100% | 98% | 98% | 0% | 0% | 85% |  |
| COc1ccnc(C(=O)N[C@@H](C)C(=O)OC(C)c2ccccc2Cc2ccccc2)c1OC(C)=O (single isomer, unassigned) [Compound 110] | 100% | 99% | 0% | 0% | 0% | 92% |  |
| COc1ccnc(C(=O)N[C@@H](C)C(=O)OC(C)c2ccccc2Cc2ccccc2)c1O (single isomer, unassigned) [Compound 111] | 97% | 9% | 16% | 0% | 0% | 56% |  |
| COc1ccnc(C(=O)N[C@@H](C)C(=O)OC(C)c2ccccc2Cc2ccccc2)c1OC(C)=O (single isomer, unassigned) [Compound 112] | 0% | 55% | 0% | 0% | 0% | 83% |  |
| COc1ccnc(C(=O)N[C@@H](C)C(=O)OC(C)c2cccc3ccccc23)c1OC(C)=O (single isomer, unassigned) [Compound 115] | 89% | 55% | 0% | 0% | 0% | 86% |  |
| COc1ccnc(C(=O)N[C@@H](C)C(=O)OC(c2ccc(C3CCCCC3)cc2)C(C)C)c1OC(C)=O (stereo partly shown) [Compound 96] |  |  |  |  |  |  | Test A disease control rating ([1]; 50 ppm): 94%; Test B disease control rating ([2]; 50 ppm): 95% |
